Experiments:
Test in all cases: Weeding effect in post-emergence stage
Format in all cases: in vivo
Abutilon theophrasti = settings: for Weeding effect in post-emergence stage, Abutilon theophrasti: level of fresh weight growth control rate; for Weeding effect in post-emergence stage, Abutilon theophrasti (level): fresh weight control rate level
In short: (§1)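 Pot-grown greenhouse plants sprayed at 2–3 leaf stage, 2 weeks after sowing, with compound in acetone/Tween 80 plus methyl oleate emulsifiable concentrate (1.5 liter/ha) at 500–7.5 g/ha. Growth control rated 3 weeks after treatment; mean of three replicates.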

Alopecurus japonicus = settings: for Weeding effect in post-emergence stage, Alopecurus japonicus: level of fresh weight growth control rate; for Weeding effect in post-emergence stage, Alopecurus japonicus (level): fresh weight control rate level
In short: as §1

Digitaria sanguinalis = settings: for Weeding effect in post-emergence stage, Digitaria sanguinalis: level of fresh weight growth control rate; for Weeding effect in post-emergence stage, Digitaria sanguinalis (level): fresh weight control rate level
In short: as §1

Eleusine indica = settings: for Weeding effect in post-emergence stage, Eleusine indica: level of fresh weight growth control rate; for Weeding effect in post-emergence stage, Eleusine indica (level): fresh weight control rate level
In short: as §1

Setaria viridis = settings: for Weeding effect in post-emergence stage, Setaria viridis: level of fresh weight growth control rate; for Weeding effect in post-emergence stage, Setaria viridis (level): fresh weight control rate level
In short: as §1

Echinochloa crusgalli = settings: for Weeding effect in post-emergence stage, Echinochloa crusgalli: level of fresh weight growth control rate; for Weeding effect in post-emergence stage, Echinochloa crusgalli (level): fresh weight control rate level
In short: as §1

Row | SMILES | Weeding effect in post-emergence stage, Abutilon theophrasti (Abutilon theophrasti; Dose 15 g/ha) | Weeding effect in post-emergence stage, Alopecurus japonicus (Alopecurus japonicus; Dose 15 g/ha) | Weeding effect in post-emergence stage, Digitaria sanguinalis (Digitaria sanguinalis; Dose 15 g/ha) | Weeding effect in post-emergence stage, Eleusine indica (Eleusine indica; Dose 15 g/ha) | Weeding effect in post-emergence stage, Setaria viridis (Setaria viridis; Dose 15 g/ha) | Weeding effect in post-emergence stage, Echinochloa crusgalli (Echinochloa crusgalli; Dose 15 g/ha) | Weeding effect in post-emergence stage, Abutilon theophrasti (level) (Abutilon theophrasti; Dose 15 g/ha) | Weeding effect in post-emergence stage, Alopecurus japonicus (level) (Alopecurus japonicus; Dose 15 g/ha) | Weeding effect in post-emergence stage, Digitaria sanguinalis (level) (Digitaria sanguinalis; Dose 15 g/ha) | Weeding effect in post-emergence stage, Eleusine indica (level) (Eleusine indica; Dose 15 g/ha) | Weeding effect in post-emergence stage, Setaria viridis (level) (Setaria viridis; Dose 15 g/ha) | Weeding effect in post-emergence stage, Echinochloa crusgalli (level) (Echinochloa crusgalli; Dose 15 g/ha) | other results
1 | CC(O/N=C/c1cc(-n2c(=O)cc(C(F)(F)F)n(C)c2=O)c(F)cc1Cl)C(=O)OCC(F)F (racemic) [Compound 217] | 5 (Level 5: growth control rate is above 85%) | 5 (Level 5: growth control rate is above 85%) | 5 (Level 5: growth control rate is above 85%) | 5 (Level 5: growth control rate is above 85%) | 5 (Level 5: growth control rate is above 85%) | 5 (Level 5: growth control rate is above 85%) | – | – | – | – | – | – | –
2 | CCOC(=O)COC(=O)C(C)O/N=C/c1cc(-n2c(=O)n(C)c(=S)n(C)c2=O)c(F)cc1Cl (racemic) [Compound 17] | 5 (Level 5: growth control rate is above 85%) | 5 (Level 5: growth control rate is above 85%) | 5 (Level 5: growth control rate is above 85%) | 5 (Level 5: growth control rate is above 85%) | 5 (Level 5: growth control rate is above 85%) | 5 (Level 5: growth control rate is above 85%) | – | – | – | – | – | – | –
3 | CCCOC(=O)OC(=O)[C@@H](C)O/N=C/c1cc(-n2c(=O)cc(C(F)(F)F)n(C)c2=O)c(F)cc1Cl [236(R)] | – | – | – | – | – | – | – | – | – | – | – | – | Weeding effect in post-emergence stage, Abutilon theophrasti (Abutilon theophrasti; Dose 60 g/ha): 5 (Level 5: growth control rate is above 85%); Weeding effect in post-emergence stage, Alopecurus japonicus (Alopecurus japonicus; Dose 60 g/ha): 5 (Level 5: growth control rate is above 85%); Weeding effect in post-emergence stage, Digitaria sanguinalis (Digitaria sanguinalis; Dose 60 g/ha): 5 (Level 5: growth control rate is above 85%); Weeding effect in post-emergence stage, Eleusine indica (Eleusine indica; Dose 60 g/ha): 5 (Level 5: growth control rate is above 85%); Weeding effect in post-emergence stage, Setaria viridis (Setaria viridis; Dose 60 g/ha): 5 (Level 5: growth control rate is above 85%); Weeding effect in post-emergence stage, Echinochloa crusgalli (Echinochloa crusgalli; Dose 60 g/ha): 5 (Level 5: growth control rate is above 85%)
4 | C/C(Cl)=C/COC(=O)[C@@H](C)O/N=C/c1cc(-n2c(=O)cc(C(F)(F)F)n(C)c2=O)c(F)cc1Cl [500(R)] | – | – | – | – | – | – | 5 (Level 5: growth control rate is above 85%) | 5 (Level 5: growth control rate is above 85%) | 5 (Level 5: growth control rate is above 85%) | 5 (Level 5: growth control rate is above 85%) | 5 (Level 5: growth control rate is above 85%) | 5 (Level 5: growth control rate is above 85%) | –
5 | COC(=O)C(O/N=C/c1cc(-n2c(=O)cc(C(F)(F)F)n(C)c2=O)c(F)cc1Cl)C1CCCC1 (stereo not drawn) [Compound 489] | – | – | – | – | – | – | 5 (Level 5: growth control rate is above 85%) | 5 (Level 5: growth control rate is above 85%) | 5 (Level 5: growth control rate is above 85%) | 5 (Level 5: growth control rate is above 85%) | 5 (Level 5: growth control rate is above 85%) | 5 (Level 5: growth control rate is above 85%) | –
6 | C[C@@H](O/N=C/c1cc(-n2c(=O)cc(C(F)(F)F)n(C)c2=O)c(F)cc1Cl)C(=O)OCCC(F)(F)F [221(R)] | 5 (Level 5: growth control rate is above 85%) | 5 (Level 5: growth control rate is above 85%) | 5 (Level 5: growth control rate is above 85%) | 5 (Level 5: growth control rate is above 85%) | 5 (Level 5: growth control rate is above 85%) | 5 (Level 5: growth control rate is above 85%) | – | – | – | – | – | – | –

From patent publication US20230111310A1, “CARBOXYLIC ACID DERIVATIVE-SUBSTITUTED IMINO ARYL COMPOUND, PREPARATION METHOD THEREFOR, HERBICIDAL COMPOSITION AND USE THEREOF” (Qingdao Kingagroot Chemical Compound Co., Ltd., priority 2020, published 2023)
